From patent US20220177476A1, “Crystal Forms of (S)-4-(8-amino-3-(1-(but-2-ynoyl)-pyrrolidin-2-yl)imidazo[1,5-a]pyrazin-1-yl)-n-(pyridin-2-yl)benzamide” (Acerta Pharma B.V., priority 2015, published 2022)
Like-named read-outs stand apart in the source and are kept apart here.

Legend:
[1] = Relative stability of solid forms (water activity, suspension equilibration, storage); assay type: physicochemical; settings: for Stability at Room Temperature: crystalline forms of the free base
Excerpt: Critical water activity is a measure of the relative thermodynamic stability of Form I in comparison to the trihydrate Form II. […] Suspension equilibration experiments in ethanol-water mixtures, each having a different water activity, affirmed this conclusion. Water activities included in the experiments were maintained at: about 0.35 (ethanol-water ratio of 95:5, PP502-P32), about 0.53 (ethanol-water ratio of 9:1, PP502-P33) and about 0.77 (ethanol-water ratio of 7:3, PP502-P34).
Because the DVS results of Form II indicate reversible moisture sorption-desorption behavior (see above), tests were performed to confirm that storage of the dehydrated Form II sample (i.e., Form IV) at about 60% RH would again lead to the trihydrate form (Form II). […]

[2] = Plasma exposure after single oral administration in fasted beagle dogs; assay type: in vivo; settings: nine fasted beagle dogs, single oral administration of 6 mg/kg, oral capsule
Experimental: The plasma exposure of Forms I and II of the free base of Formula (1) were compared in nine fasted beagle dogs after a single oral administration of 6 mg/kg of either form using batches with a similar particle size distribution. The experiment was performed in 5 weekly phases, with the Form II phase last. […] There was a good in vitro in vivo correlation for the dissolution rates of Form 1 and Form II, and the performance of each form of Formula (1) when delivered by oral capsule to dogs.

[3] = Intrinsic dissolution rate (paddle over stationary disc); assay type: physicochemical
Experimental: The intrinsic dissolution rate (IDR) was measured for Forms I and II of the free base of Formula (1). IDR was measured using a paddle over stationary disc equipped dissolution apparatus with concentration determined using liquid chromatographic analysis against a standard. […] Form I has an IDR of 6.8 mg/cm^2/min in simulated gastric fluid (SGF) (pH 1.2) and an IDR of 0.44 mg/cm^2/min in pH 2.5 HCl/NaCl buffer. Form II has an IDR of 5.4 mg/cm^2/min in SGF and an IDR of 0.35 mg/cm^2/min in pH 2.5 HCl/NaCl buffer.

[4] = Dynamic vapor sorption (DVS); assay type: physicochemical; settings: for hygroscopicity according to the European Pharmacopoeia (EP) classification: weight increase at 80% RH; for water content at the end of the DVS test: by weight
Experimental: A gravimetric vapor sorption study was run using a standard procedure. Samples were run using a dynamic vapor sorption (DVS) analyzer. Sample sizes were approximately 10 mg. A moisture adsorption-desorption isotherm was performed as outlined below.

[5] = Aqueous solubility after equilibrating at 25° C. for three days (HPLC); assay type: physicochemical; settings: water, equilibrated at 25° C. for three days, HPLC of filtered solution
Experimental: Finally, Form II was tested with respect to solubilities in various water-solvent mixtures and non-aqueous solvents. […] High-performance liquid chromatography (HPLC) was used to determine the concentration of Form II in the filtered solution at approximately 14 μg/mL, which translates into a critical water activity (aw) of about 0.59.

[6] = for Solubility (mg/mL) after 24 hours equilibration: pure water at 25° C., pH 3.6-4.1
[7] = Bulk and tapped density of salts; assay type: physicochemical; settings: 10 gram sample
[8] = Aqueous solubility of salts after three hours equilibration without pH adjustment; assay type: physicochemical; settings: water
Experimental: Characterization of fumarate salt, maleate salt, phosphate salt and L-tartrate salt was conducted using ^1H NMR spectroscopy, TG-FTIR, DSC, dynamic vapor sorption, optical microscopy, high-performance liquid chromatography (HPLC) purity, laser diffraction, approximate bulk and tapped density, and aqueous solubility analytical techniques.

SMILES: CC#CC(=O)N1CCC[C@H]1c1nc(-c2ccc(C(=O)Nc3ccccn3)cc2)c2c(N)nccn12 [Form II, (S)-4-(8-amino-3-(1-(but-2-ynoyl)pyrrolidin-2-yl)imidazo[1,5-α]pyrazin-1-yl)-N-(pyridin-2-yl)benzamide]
- critical water activity (aw) ([1]; Form I versus trihydrate Form II, room temperature, from aqueous solubilities): about 0.59
- relative thermodynamic stability of Form I and Form II ([1]; room temperature, depending on water activity): above this value Form II is more stable
- Cmax (maximum concentration) [2]: lower Cmax (maximum concentration) than Form I in all dogs
- area under the plasma drug concentration-time curve (AUC) [2]: lower AUC than Form I in all dogs
- intrinsic dissolution rate (IDR) ([3]; pH 2.5 HCl/NaCl buffer): 0.35 mg/cm^2/min
- intrinsic dissolution rate (IDR) ([3]; simulated gastric fluid (SGF) (pH 1.2)): 5.4 mg/cm^2/min
- maximum water content (saturation) at about 95% RH ([4]; DVS): about 10.4%
- total weight gain observed between 0% RH and 80% RH ([4]; DVS): about 10%
- hygroscopicity according to the European Pharmacopoeia (EP) classification ([4]; DVS): hygroscopic (hygroscopic: ≥2% and <15%)
- aqueous solubility [5]: approximately 14 μg/mL

SMILES: CC#CC(=O)N1CCC[C@H]1c1nc(-c2ccc(C(=O)Nc3ccccn3)cc2)c2c(N)nccn12 [Form III, (S)-4-(8-amino-3-(1-(but-2-ynoyl)pyrrolidin-2-yl)imidazo[1,5-α]pyrazin-1-yl)-N-(pyridin-2-yl)benzamide]
- Stability at Room Temperature [1]: metastable
- maximum water content (saturation) at about 95% RH ([4]; DVS): about 8.5%
- total weight gain observed between 0% RH and 80% RH ([4]; DVS): about 8%
- hygroscopicity according to the European Pharmacopoeia (EP) classification ([4]; DVS): hygroscopic (hygroscopic: ≥2% and <15%)

SMILES: CC#CC(=O)N1CCC[C@H]1c1nc(-c2ccc(C(=O)Nc3ccccn3)cc2)c2c(N)nccn12 [Form IV, (S)-4-(8-amino-3-(1-(but-2-ynoyl)pyrrolidin-2-yl)imidazo[1,5-α]pyrazin-1-yl)-N-(pyridin-2-yl)benzamide]
- Stability at Room Temperature [1]: metastable
- form after storage at 60% RH for three days (PXRD) ([1]; dehydrated Form II sample): does revert to Form II

SMILES: CC#CC(=O)N1CCC[C@H]1c1nc(-c2ccc(C(=O)Nc3ccccn3)cc2)c2c(N)nccn12 [Form V, (S)-4-(8-amino-3-(1-(but-2-ynoyl)pyrrolidin-2-yl)imidazo[1,5-α]pyrazin-1-yl)-N-(pyridin-2-yl)benzamide]
- Stability at Room Temperature [1]: metastable

SMILES: CC#CC(=O)N1CCC[C@H]1c1nc(-c2ccc(C(=O)Nc3ccccn3)cc2)c2c(N)nccn12 [Form VI, (S)-4-(8-amino-3-(1-(but-2-ynoyl)pyrrolidin-2-yl)imidazo[1,5-α]pyrazin-1-yl)-N-(pyridin-2-yl)benzamide]
- Stability at Room Temperature [1]: metastable

SMILES: CC#CC(=O)N1CCC[C@H]1c1nc(-c2ccc(C(=O)Nc3ccccn3)cc2)c2c(N)nccn12 [Form VII, (S)-4-(8-amino-3-(1-(but-2-ynoyl)pyrrolidin-2-yl)imidazo[1,5-α]pyrazin-1-yl)-N-(pyridin-2-yl)benzamide]
- Stability at Room Temperature [1]: metastable

SMILES: CC#CC(=O)N1CCC[C@H]1c1nc(-c2ccc(C(=O)Nc3ccccn3)cc2)c2c(N)nccn12 [Form VIII, (S)-4-(8-amino-3-(1-(but-2-ynoyl)pyrrolidin-2-yl)imidazo[1,5-α]pyrazin-1-yl)-N-(pyridin-2-yl)benzamide]
- Stability at Room Temperature [1]: metastable

SMILES: CC#CC(=O)N1CCC[C@H]1c1nc(-c2ccc(C(=O)Nc3ccccn3)cc2)c2c(N)nccn12.O=C(O)/C=C/C(=O)O [Fumarate, (S)-4-(8-amino-3-(1-(but-2-ynoyl)pyrrolidin-2-yl)imidazo[1,5-α]pyrazin-1-yl)-N-(pyridin-2-yl)benzamide fumarate]
- Solubility (mg/mL) after 24 hours equilibration [6]: 2.1 mg/mL
- Bulk density [7]: 0.45 g/mL
- Tapped density [7]: 0.57 g/mL
- Solubility (3 hours) [8]: ~1800 µg/mL
- Behavior in DVS: Δm (20-80% RH) [4]: ~0.8% (20-80% RH)
- maximum water content (saturation) at about 95% RH ([4]; DVS): approximately 6%
- water content change between 20% and 80% RH ([4]; DVS): about 0.8%

SMILES: CC#CC(=O)N1CCC[C@H]1c1nc(-c2ccc(C(=O)Nc3ccccn3)cc2)c2c(N)nccn12.O=C(O)C(O)C(O)C(=O)O [L-Tartrate, (S)-4-(8-amino-3-(1-(but-2-ynoyl)pyrrolidin-2-yl)imidazo[1,5-α]pyrazin-1-yl)-N-(pyridin-2-yl)benzamide L-tartrate]
- Bulk density [7]: 0.29 g/mL
- Tapped density [7]: 0.50 g/mL
- Behavior in DVS: Δm (20-80% RH) [4]: ~0.7% (20-80% RH)
- maximum water content (saturation) at about 95% RH ([4]; DVS): approximately 5.4%
- water content at 50% RH ([4]; DVS): about 4.8%
- water content change between 20% and 80% RH ([4]; DVS): about 0.7%

SMILES: CC#CC(=O)N1CCC[C@H]1c1nc(-c2ccc(C(=O)Nc3ccccn3)cc2)c2c(N)nccn12.O=C(O)/C=C\C(=O)O [Maleate, (S)-4-(8-amino-3-(1-(but-2-ynoyl)pyrrolidin-2-yl)imidazo[1,5-α]pyrazin-1-yl)-N-(pyridin-2-yl)benzamide maleate]
- solubility ([6]; 0.1 N HCl, Sigma #71763, pH after 24 hours 1.8): 37000 µg/mL
- solubility ([6]; borate buffer (sample pH9), pH after 24 hours 4.7): 1200 µg/mL
- solubility ([6]; buffer pH 5, pH after 24 hours 4.8): 4300 µg/mL
- solubility ([6]; citrate buffer pH 3, pH after 24 hours 3.2): 8000 µg/mL
- solubility ([6]; phosphate buffer pH 7, KH2PO4 (sample pH6.8), pH after 24 hours 4.8): 1200 µg/mL
- solubility ([6]; phosphate buffer pH 7, KH2PO4 (sample pH7.4), pH after 24 hours 5.0): 800 µg/mL
- Solubility (mg/mL) after 24 hours equilibration [6]: 2.3 mg/mL
- Bulk density [7]: 0.35 g/mL
- Tapped density [7]: 0.45 g/mL
- Solubility (3 hours) [8]: 2200 µg/mL
- Behavior in DVS: Δm (20-80% RH) [4]: fumarate, Δm~0.7%
- maximum water content (saturation) at about 95% RH ([4]; DVS): approximately 5.8%
- water content change between 20% and 80% RH ([4]; DVS): about 0.5%

SMILES: CC#CC(=O)N1CCC[C@H]1c1nc(-c2ccc(C(=O)Nc3ccccn3)cc2)c2c(N)nccn12.O=P(O)(O)O [Phosphate, (S)-4-(8-amino-3-(1-(but-2-ynoyl)pyrrolidin-2-yl)imidazo[1,5-α]pyrazin-1-yl)-N-(pyridin-2-yl)benzamide phosphate]
- Solubility (mg/mL) after 24 hours equilibration [6]: 15.0 mg/mL
- Bulk density [7]: 0.33 g/mL
- Tapped density [7]: 0.48 g/mL
- Solubility (3 hours) [8]: 9800 µg/mL
- Behavior in DVS: Δm (20-80% RH) [4]: ~0.7% (20-80% RH)
- maximum water content (saturation) at about 95% RH ([4]; DVS): approximately 6.6%

SMILES: CC#CC(=O)N1CCC[C@H]1c1nc(-c2ccc(C(=O)Nc3ccccn3)cc2)c2c(N)nccn12 [amorphous Formula (1), (S)-4-(8-amino-3-(1-(but-2-ynoyl)pyrrolidin-2-yl)imidazo[1,5-α]pyrazin-1-yl)-N-(pyridin-2-yl)benzamide]
- total mass gained up to 95% RH ([4]; DVS): approximately 13%
- total weight gain observed between 0% RH and 80% RH ([4]; DVS): about 6%
- hygroscopicity according to the European Pharmacopoeia (EP) classification ([4]; DVS): hygroscopic (hygroscopic: ≥2% and <15%)

SMILES: CC#CC(=O)N1CCC[C@H]1c1nc(-c2ccc(C(=O)Nc3ccccn3)cc2)c2c(N)nccn12.O=C(O)CC(O)(CC(=O)O)C(=O)O [citrate salt, (S)-4-(8-amino-3-(1-(but-2-ynoyl)pyrrolidin-2-yl)imidazo[1,5-α]pyrazin-1-yl)-N-(pyridin-2-yl)benzamide citrate]
- form after suspension equilibration in water ([1]; water at 25° C. for 24 hours): conversion to Form III of the free base of Formula (1)
- water content at the end of the DVS test ([4]; DVS): about 7.5%

SMILES: CC#CC(=O)N1CCC[C@H]1c1nc(-c2ccc(C(=O)Nc3ccccn3)cc2)c2c(N)nccn12.O=C(O)c1cc(O)ccc1O [gentisate salt, (S)-4-(8-amino-3-(1-(but-2-ynoyl)pyrrolidin-2-yl)imidazo[1,5-α]pyrazin-1-yl)-N-(pyridin-2-yl)benzamide gentisate]
- water content at the end of the DVS test ([4]; DVS): 5.2%

SMILES: CC#CC(=O)N1CCC[C@H]1c1nc(-c2ccc(C(=O)Nc3ccccn3)cc2)c2c(N)nccn12.O=C(O)C(=O)O [oxalate salt, (S)-4-(8-amino-3-(1-(but-2-ynoyl)pyrrolidin-2-yl)imidazo[1,5-α]pyrazin-1-yl)-N-(pyridin-2-yl)benzamide oxalate]
- maximum water content (saturation) at about 95% RH ([4]; DVS): about 6.5%
- water content at 50% RH ([4]; DVS): about 5.5%
